Data on ten compounds can be found in ChEMBL document CHEMBL2040840, “New quinoline-5,8-dione and hydroxynaphthoquinone derivatives inhibit a chloroquine resistant Plasmodium falciparum strain” (Eur J Med Chem, 2012).

Active and inactive are the calls of the source. No cut-off for these calls is given here.

What is called IC50 is the concentration needed to halve the response being measured.

Assay [1] relates to Plasmodium falciparum. Nature of the assay: Antiplasmodial activity against Plasmodium falciparum NF54 infected in human erythrocytes after 72 hrs by geimsa staining. The following applies: for IC50: NF54, 72 h. It counts as functional, organism-based.
The test system of assay [2] is Plasmodium falciparum. Nature of the assay: Antiplasmodial activity against Plasmodium falciparum NF54 infected in human erythrocytes assessed as decrease in parasitemia measured on day 1 post-treatment by geimsa staining (reference value: 0.65 +/- 02%). It counts as functional. On the set-up: scale not given: the % may be the effect or the level left.
Assay [3] has as its system Plasmodium falciparum. Nature of the assay: Antiplasmodial activity against Plasmodium falciparum NF54 infected in human erythrocytes assessed as decrease in parasitemia measured on day 2 post-treatment by geimsa staining (reference value: 1.1 +/- 0.09%). It counts as functional. On the set-up: scale not given: the % may be the effect or the level left.
In assay [4] the test system is Plasmodium falciparum. Nature of the assay: Antiplasmodial activity against Plasmodium falciparum NF54 infected in human erythrocytes assessed as decrease in parasitemia measured on day 3 post-treatment by geimsa staining (reference value: 2.18 +/- 0.17%). It counts as functional. On the set-up: scale not given: the % may be the effect or the level left.
Assay [5] deals with Plasmodium falciparum. Nature of the assay: Antiplasmodial activity against Plasmodium falciparum NF54 infected in human erythrocytes assessed as decrease in parasitemia measured on day 4 post-treatment by geimsa staining (reference value: 3.28 +/- 0.11%). It counts as functional. On the set-up: scale not given: the % may be the effect or the level left.

Turning to `CCCc1ccc(-c2ccc(NC3=C(Br)C(=O)c4nc(C)ccc4C3=O)cc2)cc1`, the IC50 in assay [1] is 4.37 µM. Also, the Activity in assay [2] came out at 0.42%; in assay [3] it was 0.19%; in assay [4], 0.05%; in assay [5], 0%.

Regarding `CCN(CC)CCCC(C)Nc1ccnc2cc(Cl)ccc12` (configuration not stated) [CHLOROQUINE], the Activity in assay [2] amounted to 0.06%; in assay [3], 0%; in assay [4], 0%; in assay [5], 0%.

For the compound `Cc1ccc2c(n1)C(=O)C=C(N1CCN(c3ccccc3)CC1)C2=O`, the IC50 in assay [1] was found to be 3.96 µM. The Activity in assay [2] amounted to 0.43%; in assay [3], 0.25%; in assay [4], 0.04%; in assay [5], 0%.

For `Cc1ccc2c(n1)C(=O)C(Br)=C(N1CCN(c3ccccc3)CC1)C2=O`, half-maximal inhibition in assay [1] (IC50) was put at 2.21 µM. Further, the Activity in assay [2] was determined as 0.46%; in assay [3], 0.29%; in assay [4], 0%; in assay [5], 0%.

Consider `O=C1C(O)=C(N2CCN(c3ccccc3)CC2)C(=O)c2ccccc21`, for which, in assay [1], the midpoint of inhibition, the IC50, lay at 3.89 µM. Also, the Activity in assay [2] was found to be 0.5%; in assay [3] it was 0.26%; in assay [4] it was 0.03%; in assay [5], 0%.

In assay [1], `Cc1ccc2c(n1)C(=O)C(Br)=C(NN1CCN(N)CC1)C2=O` came in with an IC50 of 4.1 µM. Further, the Activity in assay [2] stood at 0.48%; in assay [3], 0.28%; in assay [4], 0.07%; in assay [5] it was 0%.

With `Oc1c(Br)cc(Br)c2cccnc12`, in assay [1], the outcome was inactive.

Regarding `Cc1ccc2c(Br)cc(Br)c(O)c2n1` [BROQUINALDOL], in assay [1], 7.54 µM corresponded to half-maximal inhibition (IC50).

Turning to `Cc1ccc2c(n1)C(=O)C(Br)=C(NN1CCN(NC3=C(Br)C(=O)c4nc(C)ccc4C3=O)CC1)C2=O`, half-maximal inhibition in assay [1] (IC50) was put at 3.93 µM. Further, the Activity was 0.65% in assay [2], 0.49% in assay [3], 0.05% in assay [4] and 0% in assay [5].

`CCCc1ccc(-c2ccc(NC3=C(Br)C(=O)c4ncccc4C3=O)cc2)cc1`: the 50% inhibitory concentration (IC50) in assay [1] was 3 µM.
